Test results from patent US12042530B2, “Target peptides for immunotherapy and diagnostics” (University of Virginia Patent Foundation, priority 2012, dated 2024).
Non-standard residues stand in square brackets, D forms with d. Residues, ends and D or L forms follow the SMILES beside them. No end group written: not given here. pT = C[C@@H](OP(=O)(O)O)[C@H](N)C(=O)O; pS = N[C@@H](COP(=O)(O)O)C(=O)O

What was measured:
PBMCs = assay: Memory T cell response, IFNγ ELISpot, healthy A2 positive donors; assay type: cell-based, human; details: for Day 7 ELISpot, donor alpha: healthy A2 positive donor alpha; for Day 7 ELISpot, donor beta: healthy A2 positive donor beta; for Day 7 ELISpot, donor one: healthy A2 positive donor one; for Memory T cell response, in words: healthy donors / patient
HLA A*0201 [1] = biological target: T1, HLA A*0201 (Homo sapiens, UniProt P04439, D140Y/D185E/D98H/E176V/E277Q/G131W/G231S/I119V/I121R/I166T/I218V/L300P/L318F/N151K/N90K/P208A/P217A/Q86G/Q94H/R138H/R169H/T345S); assay: HLA-A*0201 peptide-binding competition assay; details: for IC50: FIG. 2F, three independent experiments, triplicate wells, read-out: IC50, competition with a standard peptide for HLA-A2 binding (converted)
Protocol: Affinity purified HLA-A*0201 was incubated with iodinated peptide […] (SEQ ID NO: 2379), graded doses of test peptides, and β2M as previously described (Zarling et al., 2000). Peptide-MHC complexes were captured in W6/32-coated ELISA plates after 48 hours and the dose at which test peptides inhibited binding of the indicator peptide by 50% (IC50) was calculated.

melanoma cells = assay: T cell recognition of GSK-3β- and proteasome-inhibited melanoma cells; assay type: cell-based, human; details: for pS33-βcat-specific T cell recognition of melanoma cells: DM331 and SLM2, re-expression of peptide-MHC in presence of inhibitor (5 μM)
Protocol: Surface peptide-MHC complexes were denatured from the cells using a mild acid buffer as previously described (Robila et al., 2008) and then allowed to re-express peptide-MHC molecules in the presence of BIO, MeBIO, or 5 μM lactacystin for 12 hours. T cell recognition of the cells was evaluated after 5 hours incubation with pS33-βcat-specific T cells.

phosphoS33-β-catenin = assay: Western blot of phosphoS33-β-catenin and β-catenin; assay type: cell-based, human; details: BIO in the presence of lactacystin
Protocol: Lysates were prepared from ˜80% confluent cells in buffer containing 2% Triton X 100 and protease and phosphatase inhibitors. Samples were separated on 8% SDS-PAGE (Thermo Fischer Scientific Inc., Waltham, Massachusetts, United States of America) and transferred to PVDF membranes (Millipore Immobilon-FL, 0.45 μm; Millipore Corporation, Billerica, Massachusetts, United States of America). Blots were probed with phosphoS33-β-catenin, β-catenin, and GAPDH antibodies overnight at 4° C. and developed by enhanced chemiluminescence (Millipore). Films were scanned and integrated density values determined using AlphaEase software and normalized to values obtained for GAPDH. In some cases, GSK-3 activity was inhibited using 5 μg BIO ((2′Z, 3′E)-6-Bromoindirubin-3′-oxime) and proteasomal degradation was blocked with 10 μg lactacystin (Calbiochem) before cells were lysed.

CD8+ T cells = assay: ELISpot T cell recognition assay, healthy donors, leukemia-associated phosphopeptides; assay type: cell-based, human; details: 10 HLA-A2+ and 10 HLA-B7+ healthy individuals, 7 day cultures
Protocol: Immunity against 76 HLA-B7 and 10 HLA-A2 leukemia-associated phosphopeptide antigens was assessed in 10 HLA-A2^+ and 10 HLA-B7^+ healthy individuals (see FIG. 12A).
For ELISpot analysis, PBMCs and CD8^+ T cells were isolated fresh from healthy donors and patients. 1×10^6 PBMCs were isolated from both AML patients and healthy donors and resuspended in AIM-V media (10% human AB serum) in a 96 well plate. Peptide or phosphopeptides were added individually at 10 μg/ml and placed at 37° C. in CO2 incubator for 7 days. Cells were then harvested, washed 4 times, and re-challenged with phosphopeptides, peptides, or anti-CD3 (OKT3, 100 ng/ml, Mabtech, Inc., Mariemont, Ohio, United States of America) as per the manufacturer's instructions. Individual cytokine-producing cells were identified as dark spots after a 15 minute reaction with 5-bromo-4-chloro-3-indolyl phosphate and NBT by means of an alkaline phosphatase conjugate substrate (Mabtech).

HLA A*0301 = HLA A*0301 (Homo sapiens, UniProt P04439); assay: Binding to HLA A*0301 (statement)
HLA A*0201 [2] = biological target: T1, HLA A*0201; assay: Binding to HLA A*0201 (statement)
[3] = biological target: T2, HLA-A*0201 (HLA-A2) peptide complexes (Homo sapiens, UniProt P04439, D140Y/D185E/D98H/E176V/E277Q/G131W/G231S/I119V/I121R/I166T/I218V/L300P/L318F/N151K/N90K/P208A/P217A/Q86G/Q94H/R138H/R169H/T345S); assay: HLA-A*0201 phosphopeptides associated with leukemia samples (isolation of HLA-associated peptides)
T2 construct: endogenous in cells; host or cells: JY B-lymphoblastoid line; primary CLL, MCL, AML, ALL samples; healthy splenic T and B cells
Description: To identify naturally processed tumor-associated phosphopeptides, HLA-A*0201 (HLA-A2) and HLA-B*0702 (HLA-B7) peptide complexes from four (4) chronic lymphocytic leukemia (CLL) tumor samples, a mantle cell lymphoma sample (MCL), one acute lymphoblastic leukemia (ALL), and an acute myeloid leukemia (AML) sample, in addition to healthy splenic T and B-cells and the cultured lymphoblastoid cell line JY were isolated. These efforts yielded 10 HLA-A2-restricted and 86 HLA-B7-restricted phosphopeptide antigens (see Tables 6 and 7).
All cell lines were grown at 37° C. with 5% CO2 in growth medium consisting of RPMI 1640 supplemented with 10% FCS and two mM L-glutamine. Blood or leukapheresis samples were taken from patients with high-burden leukemia in heparin. Tumor cells were recovered by layering the blood over density gradient (Ficoll) and collecting the tumor layer following centrifugation. The tumor was washed in tris-buffered saline (TBS). The purity of the tumor was assessed using flow cytometry and was >98% pure in all cases. For healthy T and B-cell populations, a normal spleen sample processed and tonsil sample was collected and lymphocytes released through mechanical disruption. Mononuclear cells were isolated using a density gradient and 10^9 T cells isolated using anti-CD19 or anti-CD3 microbeads (Miltenyi Biotec Inc., Auburn, California, United States of America) with purity >98% were obtained. Bone marrow sample was obtained from an elective orthopedic procedure and red cell-depleted using hypotonic lysis. This sample was not processed further.
Class I MHC molecules were immunoaffinity purified from the JY cell line or from primary tumor samples, and their associated peptides were extracted as previously described in Zarling et al., 2006. Approximately 1.2-14×10^9 cells were lysed in a solution containing 20 mM Tris-HCl (pH 8.0), 150 mM NaCl, 1% CHAPS, one mM PMSF, five μg/mL aprotinin, 10 μg/mL leupeptin, 10 μg/mL pepstatin A, 1 μg/ml calyculin A, and phosphatase inhibitor (cocktails I and II; Sigma-Aldrich). The mixture was subjected to centrifugation and the resulting supernatant was passed over protein A sepharose pre-loaded with the HLA-A2-specific antibody BB7.2 or HLA-B7-specific antibody MEL Peptides were eluted from the purified class I MHC molecules with 10% acetic acid.

With “VMIGpSPKKV (VMIG[pS]PKKV; listed as Homo sapiens) [SEQ ID NO: 426]” the “Day 7 ELISpot, donor alpha” value (PBMCs) was “++ (25-99 spots)”, the “Day 7 ELISpot, donor beta” value (PBMCs) was “+ (3-24 spots)” and the “Day 7 ELISpot, donor one” value (PBMCs) was “++ (25-99 spots)”. The “Day 7 ELISpot, donor two” value (PBMCs; healthy A2 positive donor two) was “++ (25-99 spots)”.

`CC[C@H](C)[C@H](NC(=O)CNC(=O)[C@H](COP(=O)(O)O)NC(=O)[C@H](CC(=O)O)NC(=O)[C@H](CC(C)C)NC(=O)[C@@H](N)Cc1ccc(O)cc1)C(=O)N[C@@H](Cc1c[nH]cn1)C(=O)N[C@@H](CO)C(=O)NCC(=O)N[C@@H](C)C(=O)O` [SEQ ID NO: 427, YLD(pS)GIHSGA] (H-YLD[pS]GIHSGA-OH) was tested, and the IC50 (HLA A*0201 [1]) was 0.298 µM.

With VMIGsPKKL the “Memory T cell response, in words” value (PBMCs) was “strong phosphopeptide-specific memory T cell response” and the “HLA-A*0201 (MHC) binding affinity, in words” value (HLA A*0201 [1]) was “weak MHC binding affinity”.

In the case of “RTFpSPTYGL (RTF[pS]PTYGL; listed as Homo sapiens) [SEQ ID NO: 457]”, the “Day 7 ELISpot, donor one” value (PBMCs) is reported as “+ (3-24 spots)” and the “Day 7 ELISpot, donor three” value (PBMCs; healthy A2 positive donor three) is reported as “+ (3-24 spots)”.

In the case of `O=C1Nc2cc(Br)ccc2/C1=C1/Nc2ccccc2/C1=N\O` [BIO, (2′Z, 3′E)-6-Bromoindirubin-3′-oxime], the “pS33-βcat-specific T cell recognition of melanoma cells” value (melanoma cells) is reported as “completely abrogated recognition of melanoma cells”, the “T cell recognition of Tyr369” value (melanoma cells; control epitope) is reported as “unaffected” and the “Amount of phosphoS33-β-catenin in melanoma cells” value (phosphoS33-β-catenin) is reported as “significantly diminished”.

For “TPRVTGGGAM (Artificially synthesized cytomegalovirus peptide) [TPR (CMV), cytomegalovirus (CMV) peptide, reference compound]”, the “Day 7 ELISpot, donor alpha” value (PBMCs) was “+++ (>100 spots)” and the “Day 7 ELISpot, donor one” value (PBMCs) was “+ (3-24 spots)”.

For “RQA(pS)IELPSM (RQA[pS]IELPSM; listed as Homo sapiens) [SEQ ID NO: 451]”, the “Immune response in healthy donors, in words” value (CD8+ T cells) was “not immunogenic”.

In the case of “RVAsPTSGVK (RVA[pS]PTSGVK; listed as Homo sapiens) [SEQ ID NO: 65]”, the “Binding to / presentation by HLA A*0301” value (HLA A*0301) is reported as “bind to HLA A*0301” and the “Binding to HLA A*0201” value (HLA A*0201 [2]) is reported as “Neither of the A*0301 peptides bind to A*0201”.

For “RVAsPTSGVKR (RVA[pS]PTSGVKR; listed as Homo sapiens) [SEQ ID NO: 66]”, the “Binding to / presentation by HLA A*0301” value (HLA A*0301) was “bind to HLA A*0301” and the “Binding to HLA A*0201” value (HLA A*0201 [2]) was “Neither of the A*0301 peptides bind to A*0201”.

“IMDRtPEKL (IMDR[pT]PEKL; listed as Homo sapiens) [SEQ ID NO: 398]” was tested, and the “Day 7 ELISpot, donor alpha” value (PBMCs) was “+++ (>100 spots)” and the “Day 7 ELISpot, donor one” value (PBMCs) was “+ (3-24 spots)”.

`CC[C@H](C)[C@H](NC(=O)CNC(=O)[C@H](COP(=O)(O)O)NC(=O)[C@H](CC(=O)O)NC(=O)[C@H](CC(C)C)NC(=O)[C@@H](N)Cc1ccc(O)cc1)C(=O)N[C@@H](Cc1c[nH]cn1)C(=O)N[C@@H](CO)C(=O)NCC(=O)N[C@H](C(=O)O)C(C)C` [SEQ ID NO: 2080, YLDsGIHSGV] (H-YLD[pS]GIHSGV-OH) was tested, and the IC50 (HLA A*0201 [1]) was 0.0364 µM.

In the case of “KLIDRTE(pS)L (KLIDRTE[pS]L; listed as Homo sapiens) [SEQ ID NO: 440]”, the “Immune response in healthy donors, in words” value (CD8+ T cells) is reported as “not immunogenic”.

For “APRRYsSSL (APRRY[pS]SSL; listed as Homo sapiens) [SEQ ID NO: 267]”, the “Day 7 ELISpot, donor alpha” value (PBMCs) was “++ (25-99 spots)”, the “Day 7 ELISpot, donor beta” value (PBMCs) was “+ (3-24 spots)” and the “Memory T cell response, in words” value (PBMCs) was “Two healthy donors (HD) responded”. The “Binding to HLA A*0201” value (HLA A*0201 [2]) was “does not bind to A*0201”.

In the case of `CC[C@H](C)[C@H](NC(=O)CNC(=O)[C@H](COP(=O)(O)O)NC(=O)[C@H](CC(=O)O)NC(=O)[C@H](CC(C)C)NC(=O)[C@@H](N)Cc1ccc(O)cc1)C(=O)N[C@@H](Cc1c[nH]cn1)C(=O)N[C@@H](COP(=O)(O)O)C(=O)NCC(=O)N[C@@H](C)C(=O)O` [pS33/S37-βcat30] (H-YLD[pS]GIH[pS]GA-OH), the IC50 (HLA A*0201 [1]) is reported as 0.575 µM.

For “440 (KLIDRTESL; SITE (1)..(9): One or more of the listed amino acids can be phosphorylated as set forth in the Tables; listed as Homo sapiens) [compound 440]”, the “Copies/cell class, CLL2” value ([3]; CLL2) was 2 (2 indicates 1-5 copies/cell), the “Copies/cell class, CLL3” value ([3]; CLL3) was 1 (1 indicates <1 copy/cell) and the “Copies/cell class, CLL4” value ([3]; CLL4) was 1 (1 indicates <1 copy/cell). The “Copies/cell class, JY” value ([3]; EBV transformed B lymphoblastoid cell line JY) was 2 (2 indicates 1-5 copies/cell), the “Copies/cell class, AML1” value ([3]; acute myeloid leukemia sample AML1) was 0 and the “Copies/cell class, CLL1” value ([3]; chronic lymphocytic leukemia sample CLL1) was 2 (2 indicates 1-5 copies/cell). The “Copies/cell class, B Cell” value ([3]; healthy B cells) was 0, the “Copies/cell class, T Cell” value ([3]; healthy T cells) was 0 and the “Copies/cell class, MCL” value ([3]; mantle cell lymphoma sample) was 0.

`CC(=O)NC(CSC(=O)C1(C(O)C(C)C)NC(=O)C(C)C1O)C(=O)O` (stereo not drawn) [lactacystin, 2-(acetylamino)-3-[({3-hydroxy-2-[1-hydroxy-2-methylpropyl]-4-methyl-5-oxopyrrolidin-2-yl}carbonyl)sulfanyl]propanoic acid] was tested, and the “pS33-βcat-specific T cell recognition of melanoma cells” value (melanoma cells) was “abolished” and the “Amount of phosphoS33-β-catenin in melanoma cells” value (phosphoS33-β-catenin) was “substantial increase”.
